Data: patent US7166614B2, “Tetrahydropyranyl cyclopentyl tetrahydroisoquinoline modulators of chemokine receptor activity” (Merck & Co., Inc., priority 2002, dated 2007)

Experiments:
[1] = biological target: T1, CCR-2 receptor (Homo sapiens, UniProt P41597); experiment: CCR-2 binding assay (inhibition of 125I-MCP-1 binding); conditions: cis isomer compared with trans isomer, resolved on preparation plate; assay not specified
T1 construct: the endogenous CCR-2 receptor on various cell types including monocytes, THP-1 cells; endogenous in cells; host or cells: monocytes, THP-1 cells (or eukaryotic cells expressing the cloned receptor)
T1 sequence (P41597 whole entry): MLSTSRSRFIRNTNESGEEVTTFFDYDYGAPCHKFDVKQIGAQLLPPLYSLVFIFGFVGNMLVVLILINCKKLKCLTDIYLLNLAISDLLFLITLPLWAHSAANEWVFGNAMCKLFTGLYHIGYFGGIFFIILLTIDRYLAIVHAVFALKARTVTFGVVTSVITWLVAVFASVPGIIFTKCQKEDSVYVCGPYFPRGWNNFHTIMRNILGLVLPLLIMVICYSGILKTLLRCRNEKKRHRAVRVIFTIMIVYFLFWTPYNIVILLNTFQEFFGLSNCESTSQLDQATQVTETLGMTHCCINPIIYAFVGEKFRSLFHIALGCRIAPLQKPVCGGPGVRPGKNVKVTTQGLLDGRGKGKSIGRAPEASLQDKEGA
Procedure: Receptor affinity in a CCR-2 binding assay was determined by measuring inhibition of ^125I-MCP-1 to the endogenous CCR-2 receptor on various cell types including monocytes, THP-1 cells, or after heterologous expression of the cloned receptor in eukaryotic cells. The cells were suspended in binding buffer (50 mM HEPES, pH 7.2,5 mM MgCl2, 1 mM CaCl2, and 0.50% BSA) with and added to test compound or DMSO and ^125I-MCP-1 at room temperature for 1 h to allow binding. The cells were then collected on GFB filters, washed with 25 mM HEPES buffer containing 500 mM NaCl and cell bound ^125I-MCP-1 was quantified.

[2] = Storage stability at room temperature (air oxidation, LC-MS); type: physicochemical; conditions: stored in a scintillation vial at room temperature for three months; degradation by air oxidation; separation by reverse phase HPLC
Procedure: Separation by Gilson reverse phase HPLC provided two new products (Example 114 and 115) and 60% of the parent compound recovered. These compounds were analyzed by NMR and LC-MS to determine the structures.

relative activity of cis vs trans isomer [1] | parent compound recovered after storage [2] [%] | SMILES
more active |  | CSC1(C(=O)N2CCc3ccc(C(F)(F)F)cc3C2)CC[C@@H](NC2CCOCC2)C1 (some centres unmarked) [Example 3]
 | 60 | CC(C)[C@]1(C(=O)N2CCc3ccc(C(F)(F)F)cc3C2)CC[C@@H](NC2CCOCC2F)C1 (some centres unmarked) [Example 96]
